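96-well plates; 48 h exposure; 5 concentrations. Endpoints by linear interpolation between flanking doses. Not reached: highest tested concentration assigned. At the GI50, growth is halved.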 The source made the active and inactive calls. No stated cut-off is given here; in the data, active = GI50 up to about 1.1 µM and inactive = higher.

Some test systems named below: A498; COLO 205; DLD-1; DMS-273; HCT-116; HCT-15; IGROV-1; KM12; Malme-3M; NCI-H460; NCI-H522; RPMI-8226; SF-539; SN12C; SNB-19; SNB-75; SW-620; UACC-257; UO-31; TK-10.
Holding throughout (assay): growth of human tumour cells (NCI), 48 h

With `CSc1nc(NC2OCC(O)C(O)C2O)c(N)c(=O)[nH]1` (configuration not stated), the GI50 was > 100 µM (inactive) in the test with A498; > 100 µM (inactive) in the test on COLO 205; > 100 µM (inactive) in the test with DLD-1; > 100 µM (inactive) in the test on DMS-273; > 100 µM (inactive) in the test with HCT-116; above 100 µM in the test with HCT-15. Further, the GI50 with IGROV-1, in the test on KM12, in the test on Malme-3M, in the test on NCI-H460, in the test on NCI-H522 and in the test on RPMI-8226 was > 100 µM (inactive) throughout. Further, the GI50 in the test with SF-539, with SN12C, with SNB-19, with SNB-75, with SW-620 and in the test on UACC-257 was > 100 µM (inactive) in each case. Besides, the GI50 in the test with UO-31 was > 100 µM (inactive).

In the case of `CCCCOc1ccc(OCCCCCCCCCC[N+](C)(C)C)cc1`, the GI50 is 9.93 µM (inactive) in the test on A498; 1.24 µM (inactive) in the test on COLO 205; 6.38 µM (inactive) in the test with DLD-1; 1.51 µM (inactive) in the test with DMS-273; 2.34 µM (inactive) with HCT-116; 14.9 µM with HCT-15. Besides, the GI50 in the test on IGROV-1 is 1.37 µM (inactive); in the test with KM12, 1.48 µM (inactive); in the test with Malme-3M it was 4.37 µM (inactive); in the test on NCI-H460 it was 2.54 µM (inactive); in the test on NCI-H522, 1.7 µM (inactive); in the test with RPMI-8226, 0.481 µM (active). Besides, the GI50 was 3.24 µM (inactive) in the test on SF-539; 3.62 µM (inactive) in the test on SN12C; 7.6 µM (inactive) in the test on SNB-19; 2.17 µM (inactive) in the test on SNB-75; 3.66 µM (inactive) in the test with SW-620; 5.08 µM (inactive) in the test with UACC-257. Further, the GI50 in the test on UO-31 was 8.02 µM (inactive).

With `OCCNCN(CNCCO)c1nc(N(CNCCO)CNCCO)nc(N(CNCCO)CNCCO)n1`, the GI50 with A498 was 0.0764 µM (active); with COLO 205, 0.0411 µM (active); in the test with DLD-1, 0.04 µM (active); in the test on DMS-273, > 0.4 µM (active); with HCT-15, 0.0556 µM; with IGROV-1, 0.0757 µM (active). In addition, the GI50 is 0.137 µM (active) in the test on KM12; 0.04 µM (active) in the test with Malme-3M; 0.118 µM (active) in the test on NCI-H460; 0.0653 µM (active) in the test on NCI-H522; 0.075 µM (active) in the test with SF-539; 0.131 µM (active) in the test on SN12C. Further, the GI50 in the test on SNB-19 was 0.0708 µM (active); in the test on SW-620, 0.04 µM (active); with TK-10 it was 0.133 µM (active); with UACC-257, 0.0643 µM (active); in the test on UO-31, 0.0851 µM (active).

Regarding `N=C(N)Nc1ncccc1[N+](=O)[O-]`, the GI50 is > 100 µM (inactive) with A498; 21.8 µM (inactive) with COLO 205; > 100 µM (inactive) in the test with DLD-1; > 100 µM (inactive) in the test with DMS-273; 38.4 µM (inactive) in the test on HCT-116; 82.2 µM in the test with HCT-15. The GI50 with IGROV-1 was > 93.8 µM (inactive); in the test on KM12 it was 57.4 µM (inactive); in the test with Malme-3M it was 44.6 µM (inactive); in the test on NCI-H460, 51.8 µM (inactive); in the test with NCI-H522, > 100 µM (inactive); with RPMI-8226, > 95.1 µM (inactive). Also, the GI50 with SF-539 is 53.6 µM (inactive); in the test with SN12C, > 100 µM (inactive); in the test with SNB-19 it was > 100 µM (inactive); in the test on SNB-75, > 100 µM (inactive); with SW-620 it was > 100 µM (inactive); with UACC-257, 23.6 µM (inactive). Further, in the test with UO-31, the GI50 is > 100 µM (inactive).

For `CCOC(=O)/C=C(\C)c1ccc(OC)cc1`, the GI50 was 89.3 µM (inactive) with A498; > 100 µM (inactive) in the test with COLO 205; > 100 µM (inactive) with DLD-1; > 100 µM (inactive) in the test on DMS-273; > 100 µM (inactive) with HCT-116; above 100 µM in the test on HCT-15. Besides, the GI50 in the test on IGROV-1, in the test with KM12, in the test on Malme-3M, in the test with NCI-H460, in the test on RPMI-8226 and in the test with SF-539 was > 100 µM (inactive) in each case. Besides, the GI50 in the test with SN12C, with SNB-19, in the test with SNB-75, in the test on SW-620, with TK-10 and in the test on UACC-257 was > 100 µM (inactive) throughout. The GI50 in the test on UO-31 was > 100 µM (inactive).

For the molecule `N/C(=C\c1ccc(/C=C(\NC(=O)c2ccccc2)c2nc3c([nH]2)C(=O)c2ccccc2C3=O)cc1)c1nc2c([nH]1)C(=O)c1ccccc1C2=O`, the GI50 in the test with A498 was 13.6 µM (inactive); in the test with COLO 205, 14.8 µM (inactive); in the test on DLD-1, 12.7 µM (inactive); with DMS-273, 18.5 µM (inactive); in the test on HCT-116 it was 14.5 µM (inactive); in the test on HCT-15, 13.9 µM. Moreover, the GI50 in the test on IGROV-1 is 14.8 µM (inactive); in the test with KM12, 13.7 µM (inactive); in the test with NCI-H460, 17.5 µM (inactive); in the test on NCI-H522, 11.9 µM (inactive); in the test with RPMI-8226, 4.33 µM (inactive); with SF-539, 16.6 µM (inactive). Besides, the GI50 in the test on SN12C was 14.3 µM (inactive); in the test on SNB-19 it was 12.6 µM (inactive); in the test on SNB-75, 3.65 µM (inactive); with SW-620 it was 20.4 µM (inactive); in the test with TK-10, 23.1 µM (inactive); in the test on UACC-257, 17.8 µM (inactive). In addition, in the test on UO-31, the GI50 was 4.84 µM (inactive).

For the molecule `COc1ccc(/C=N/N=C(N)N)c(C(=O)O)c1OC`, the GI50 in the test on A498 was > 100 µM (inactive); with COLO 205, > 10 µM (inactive); in the test with DMS-273, > 100 µM (inactive); with HCT-116, > 100 µM (inactive); in the test on HCT-15, above 100 µM; in the test on IGROV-1, > 10 µM (inactive). In addition, the GI50 with KM12, with NCI-H460, in the test on NCI-H522, in the test on RPMI-8226, in the test on SF-539 and in the test on SN12C was > 100 µM (inactive) throughout. The GI50 in the test with SNB-19, in the test on SNB-75, with SW-620, with TK-10, in the test on UACC-257 and with UO-31 was > 100 µM (inactive) each time.

In the case of `CCOC(=O)/C(C#N)=C1/SC(C(=O)N/N=C/c2ccc(OC)cc2)=C(N)N1c1ccccc1`, the GI50 in the test with COLO 205 was > 100 µM (inactive); in the test with DLD-1 it was > 100 µM (inactive); in the test with HCT-116 it was > 100 µM (inactive); in the test on IGROV-1, 3.1 µM (inactive); with KM12, > 100 µM (inactive); in the test on NCI-H460 it was 72.8 µM (inactive). The GI50 with NCI-H522 was > 100 µM (inactive); with RPMI-8226 it was 1.71 µM (inactive); in the test on SF-539, 1.16 µM (inactive); in the test with SNB-19, > 100 µM (inactive); in the test with SNB-75, 0.318 µM (active); in the test with SW-620, > 100 µM (inactive). Besides, the results for the GI50 with TK-10, in the test with UACC-257 and in the test with UO-31 were > 100 µM (inactive), 59.4 µM (inactive) and > 100 µM (inactive), respectively.

Regarding `Nc1[nH]cnc2ncnc1-2` [ADENINE], the GI50 in the test with A498 is 7.14 µM (inactive); in the test with COLO 205, > 162 µM (inactive); with DLD-1 it was 135 µM (inactive); with DMS-273 it was 81.1 µM (inactive); with HCT-116, > 250 µM (inactive); in the test with IGROV-1 it was > 250 µM (inactive). In addition, the GI50 with KM12 is 153 µM (inactive); with NCI-H522, 50.7 µM (inactive); in the test with RPMI-8226, 168 µM (inactive); in the test with SF-539 it was 49.7 µM (inactive); with SN12C, 96.2 µM (inactive); in the test with SNB-75, 121 µM (inactive). For the same molecule, the values for the GI50 with SW-620, with UACC-257 and in the test on UO-31 were 231 µM (inactive), 200 µM (inactive) and 129 µM (inactive), respectively.

For `Cc1c2c(cc3c1[nH]c1ccccc13)C=NCC2`, the GI50 was 10.5 µM (inactive) with A498; 7.13 µM (inactive) in the test on COLO 205; 4.2 µM (inactive) in the test with DLD-1; 12.6 µM (inactive) with DMS-273; 6.34 µM (inactive) in the test on HCT-116; 13.1 µM in the test with HCT-15. Besides, the GI50 in the test with IGROV-1 was 16.2 µM (inactive); in the test with KM12, 8.65 µM (inactive); in the test on Malme-3M it was 6.61 µM (inactive); in the test on NCI-H460, 8.53 µM (inactive); in the test on NCI-H522, 12.9 µM (inactive); with RPMI-8226, 10.5 µM (inactive). Further, the GI50 is 6.37 µM (inactive) with SF-539; 19 µM (inactive) in the test with SN12C; 18.2 µM (inactive) in the test with SNB-19; 10.6 µM (inactive) in the test on SNB-75; 8.43 µM (inactive) in the test on SW-620; 7.83 µM (inactive) in the test on UACC-257. For the same molecule, in the test on UO-31, the GI50 is 24 µM (inactive).

Take `Nc1nc(SCCNC(=O)CCc2ccc(O)c(I)c2)nc2c1ncn2C1OC(CO)C(O)C1O` (configuration not stated): the GI50 with A498 is > 100 µM (inactive); in the test with COLO 205 it was > 100 µM (inactive); in the test on DLD-1, > 100 µM (inactive); in the test with DMS-273 it was > 100 µM (inactive); in the test with HCT-116, > 100 µM (inactive); in the test with HCT-15 it was above 100 µM. The GI50 in the test on IGROV-1, in the test with KM12, in the test on Malme-3M, in the test with NCI-H460, with NCI-H522 and with SF-539 was > 100 µM (inactive) in each case. For the same molecule, the GI50 with SN12C, in the test with SNB-19, with SNB-75, with SW-620, in the test with TK-10 and in the test on UACC-257 was > 100 µM (inactive) in each case.

(Values after ChEMBL document CHEMBL1201862, “PubChem BioAssay data set” (2004).)
